# Test results taken from US9457062B2, “Chaperonin 10-induced immunomodulation” (CBIO LIMITED, priority 2005, dated 2016).
# Legend:
# CD14 = biological target: T1, CD14 (Homo sapiens, UniProt P08571); experiment: FRET with CD14 on MonoMac 6 cells; type: binding
# T1 construct: MonoMac 6 cells (a human monocytic cell line); endogenous in cells; host or cells: MonoMac 6
# T1 sequence (P08571 20-345): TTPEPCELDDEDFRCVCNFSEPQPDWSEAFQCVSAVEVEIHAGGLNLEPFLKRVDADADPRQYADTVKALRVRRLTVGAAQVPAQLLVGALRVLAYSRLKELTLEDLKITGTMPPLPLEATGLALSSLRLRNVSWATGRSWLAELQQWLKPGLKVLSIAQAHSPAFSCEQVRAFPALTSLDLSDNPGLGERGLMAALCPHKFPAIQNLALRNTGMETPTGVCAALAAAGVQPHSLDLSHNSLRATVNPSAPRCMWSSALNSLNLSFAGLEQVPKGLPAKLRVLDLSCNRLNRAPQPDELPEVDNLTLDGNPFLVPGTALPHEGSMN
# Procedure: (§1) Cell labeling for FRET. MonoMac 6 cells (a human monocytic cell line) were labeled with 100 μl of a mixture of donor conjugated antibody (Cy3) and acceptor conjugated antibody (Cy5). For labelling of Cpn10, an anti-Cpn10 rabbit polyclonal antibody was used. […] The cells were fixed in order to prevent potential re-organisation of the proteins during the course of the experiment. Confocal imaging. Cells were imaged on a Carl Zeiss, Inc. LSM510 confocal microscope (with an Axiovert 200 fluorescent microscope) using a 1.4 NA 63× Zeiss objective. The images were analysed using LSM 2.5 image analysis software (Carl Zeiss, Inc.). Cy3 and Cy5 were detected using the appropriate filter sets. Using typical exposure times for image acquisition (less than 5 s), no fluorescence was observed from a Cy3-labelled specimen using the Cy5 filters, nor was Cy5 fluorescence detected using the Cy3 filter sets. FRET measurements. […] In the present study, FRET was measured using a method as previously described (Kenworthy and […] (1998) Journal of Cell Biology 142: 69-84; Kenworthy and […] (1998) in Gelb, M. H. (Ed.) Methods in molecular Biology. Humana Press Inc, Totowa, N.J. pp 37-49). Briefly, samples were labeled with donor and acceptor conjugated antibodies, and energy transfer was detected as an increase in donor fluorescence (dequenching) after complete photobleaching of the acceptor molecule. […]
# TLR3 = biological target: T2, TLR3 (Mus musculus, UniProt Q99MB1); experiment: IFNβ ELISA of supernatants of RAW264.7 cells stimulated with polyI:C; type: cell-based
# T2 construct: Experiments were conducted in the murine macrophage cell line RAW264.7; endogenous in cells; host or cells: RAW264.7 / RAW264-pNifty2-LUC
# T2 sequence (Q99MB1 26-905): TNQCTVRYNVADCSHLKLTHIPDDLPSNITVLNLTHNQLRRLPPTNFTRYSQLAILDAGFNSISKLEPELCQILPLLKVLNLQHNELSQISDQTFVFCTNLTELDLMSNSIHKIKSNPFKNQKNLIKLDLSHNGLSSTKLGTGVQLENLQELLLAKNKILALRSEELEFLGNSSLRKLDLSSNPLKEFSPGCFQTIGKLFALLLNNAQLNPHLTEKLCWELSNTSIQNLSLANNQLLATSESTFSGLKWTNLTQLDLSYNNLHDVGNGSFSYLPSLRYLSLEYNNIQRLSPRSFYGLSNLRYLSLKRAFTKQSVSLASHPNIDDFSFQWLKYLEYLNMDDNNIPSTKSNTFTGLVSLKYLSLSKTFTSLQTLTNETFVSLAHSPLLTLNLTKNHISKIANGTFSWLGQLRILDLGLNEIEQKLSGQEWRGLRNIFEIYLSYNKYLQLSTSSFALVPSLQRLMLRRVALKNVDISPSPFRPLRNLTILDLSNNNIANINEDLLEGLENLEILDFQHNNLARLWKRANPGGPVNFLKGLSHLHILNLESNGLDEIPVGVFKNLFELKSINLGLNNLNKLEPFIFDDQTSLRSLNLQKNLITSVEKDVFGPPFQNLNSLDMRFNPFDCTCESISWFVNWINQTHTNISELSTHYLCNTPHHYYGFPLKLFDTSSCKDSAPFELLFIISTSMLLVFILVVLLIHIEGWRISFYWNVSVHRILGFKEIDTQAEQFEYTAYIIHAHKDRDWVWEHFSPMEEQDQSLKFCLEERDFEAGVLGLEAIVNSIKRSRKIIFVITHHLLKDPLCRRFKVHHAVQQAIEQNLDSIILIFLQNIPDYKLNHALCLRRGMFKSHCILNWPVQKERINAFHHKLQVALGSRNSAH
# Procedure: Briefly, RAW264.7 cells were seeded at 2×10^5 cells/well in 24 well plates and cultured overnight (37° C., 5% CO2). Recombinant human Cpn10 (at concentrations between 10 μg/ml and 200 μg/ml) or buffer was added to cells in duplicate for 2 hours followed by the addition of polyI:C (tlrl-pic, InvivoGen, San Diego, Calif.) to a final concentration of 100 μg/ml. After 24 hours, supernatants were collected and analysed for IFNβ levels using a specific ELISA according to manufacturer's instructions (Cat No. 42400-1, R&D Systems Inc, Minneapolis, Minn.).
# Hsp90 = experiment: FRET with Hsp90 on MonoMac 6 cells; type: binding, human
# Procedure: as §1
# Hsp70 = experiment: FRET with Hsp70 on MonoMac 6 cells; type: binding, human
# Procedure: as §1
# GM1 = experiment: FRET with GM1 (lipid rafts) on MonoMac 6 cells; type: binding, human; conditions: donor GM1
# Procedure: Cell labeling for FRET. MonoMac 6 cells (a human monocytic cell line) were labeled with 100 μl of a mixture of donor conjugated antibody (Cy3) and acceptor conjugated antibody (Cy5). For labelling of Cpn10, an anti-Cpn10 rabbit polyclonal antibody was used. The cells were rinsed twice in PBS/0.02% BSA, prior to fixation with 4% formaldehyde for 15 min. The cells were fixed in order to prevent potential re-organisation of the proteins during the course of the experiment. Confocal imaging. Cells were imaged on a Carl Zeiss, Inc. LSM510 confocal microscope (with an Axiovert 200 fluorescent microscope) using a 1.4 NA 63× Zeiss objective. The images were analysed using LSM 2.5 image analysis software (Carl Zeiss, Inc.). Cy3 and Cy5 were detected using the appropriate filter sets. Using typical exposure times for image acquisition (less than 5 s), no fluorescence was observed from a Cy3-labelled specimen using the Cy5 filters, nor was Cy5 fluorescence detected using the Cy3 filter sets. FRET measurements. FRET is a non-invasive imaging technique used to determine molecular proximity. […]
# In the present study, FRET was measured using a method as previously described (Kenworthy and Edidin (1998) Journal of Cell Biology 142: 69-84; Kenworthy and Edidin (1998) in Gelb, M. H. (Ed.) Methods in molecular Biology. Humana Press Inc, Totowa, N.J. pp 37-49). […]
# TLR4 = biological target: T3, TLR4 (Homo sapiens, UniProt O00206); experiment: FRET with TLR4 on MonoMac 6 cells; type: binding
# T3 construct: endogenous in cells; host or cells: freshly isolated human monocytes; human monocyte-derived DC
# T3 sequence (O00206 24-839): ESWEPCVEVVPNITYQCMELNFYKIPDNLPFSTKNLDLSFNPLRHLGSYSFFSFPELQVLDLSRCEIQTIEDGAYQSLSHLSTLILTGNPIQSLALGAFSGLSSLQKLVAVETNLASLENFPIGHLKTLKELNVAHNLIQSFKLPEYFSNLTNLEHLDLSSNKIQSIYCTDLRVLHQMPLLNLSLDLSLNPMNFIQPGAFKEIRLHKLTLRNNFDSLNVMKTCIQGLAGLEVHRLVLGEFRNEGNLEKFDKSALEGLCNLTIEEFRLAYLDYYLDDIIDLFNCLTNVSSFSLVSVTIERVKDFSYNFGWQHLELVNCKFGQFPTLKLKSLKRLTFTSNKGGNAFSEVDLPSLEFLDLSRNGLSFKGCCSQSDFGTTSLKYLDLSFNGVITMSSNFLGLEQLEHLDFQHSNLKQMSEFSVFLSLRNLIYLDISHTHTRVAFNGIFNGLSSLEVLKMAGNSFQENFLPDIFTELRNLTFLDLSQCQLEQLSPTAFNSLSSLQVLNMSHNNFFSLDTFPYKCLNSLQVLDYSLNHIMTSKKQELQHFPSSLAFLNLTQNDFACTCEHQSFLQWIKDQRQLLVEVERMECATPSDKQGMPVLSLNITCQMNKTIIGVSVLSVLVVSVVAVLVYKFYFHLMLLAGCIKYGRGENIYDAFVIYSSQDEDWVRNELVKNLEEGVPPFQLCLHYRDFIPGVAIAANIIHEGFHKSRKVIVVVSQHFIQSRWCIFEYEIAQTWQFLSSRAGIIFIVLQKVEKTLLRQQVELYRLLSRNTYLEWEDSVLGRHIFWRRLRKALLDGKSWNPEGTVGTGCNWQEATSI
# Procedure: as §1
# CXCR4 = biological target: T4, CXCR4 (Homo sapiens, UniProt P61073); experiment: FRET with CXCR4 on MonoMac 6 cells; type: binding
# T4 construct: MonoMac 6 cells (a human monocytic cell line); endogenous in cells; host or cells: MonoMac 6
# T4 sequence (P61073 whole entry): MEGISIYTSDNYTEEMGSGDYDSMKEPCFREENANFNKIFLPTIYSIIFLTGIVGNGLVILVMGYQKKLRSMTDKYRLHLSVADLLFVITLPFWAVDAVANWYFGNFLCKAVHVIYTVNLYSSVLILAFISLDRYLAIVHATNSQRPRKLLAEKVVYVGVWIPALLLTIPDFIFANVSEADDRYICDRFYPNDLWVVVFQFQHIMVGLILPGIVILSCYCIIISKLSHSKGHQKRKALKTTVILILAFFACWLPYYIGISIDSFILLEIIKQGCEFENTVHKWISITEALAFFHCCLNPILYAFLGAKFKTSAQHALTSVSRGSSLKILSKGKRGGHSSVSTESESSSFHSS
# Procedure: as §1
# Cpn10 promoter = Cpn10 promoter luciferase reporter (pCAT/LUC-CPN) in RAW264.7 cells; type: cell-based, mouse; conditions: for up-regulation of the Cpn10 promoter: optimal agonist concentrations (FIG. 18H): IFNγ 1 ng/ml, IL-1β 1 ng/ml, TNF-α 100 ng/ml
# Text: Reagents. Recombinant human Cpn10 was produced to GMP specifications by BresaGen Limited (Adelaide, Aus) essentially as described previously (Johnson, B. 2005. J. Biol Chem 280:4037-4047). […] For FACS analysis, a cysteine residue was engineered onto the C-terminus of Cpn10 and labeled with AlexFluor647 (Invitrogen) according to manufacturer's instructions. […] TLR ligands and cytokines included: E. coli LPS (strain 055:B5, Sigma), E. coli ultra-pure LPS (0111:B4 Sigma), S. aureus LTA, B. subtilis LTA, S. aureus PGN, B. subtilis PGN, zymosan cell wall from S. cerevisae, poly(I:C), imiquimod R837, CpG ODN 1826 and ODN2216, GpC ODN1826 control, (all from Invivogen, San Diego, Calif.), recombinant mouse IFNγ, (Chemicon), IL-1β (PeproTech), and recombinant human TNF-α (Invivogen). Antibodies. Rabbit polyclonal antibodies were raised against Cpn10 and affinity purified at CBio. Cytometric Bead Array (CBA) Flex Sets recognizing phosphorylated signal proteins (both human and mouse) including ERK1/2 (T202/Y204), JNK1/2 (T183/Y185), p38/MAPKinase (T180/Y182), CD14, and FcBlock (CD16/CD32) were from BD. Transfection, Cell Stimulation and Promoter analysis. The pCAT/LUC-CPN promoter construct was provided by M. Ryan and N. Hoogenraad (La Trobe University, Melbourne). RAW264.7 cells were transiently transfected using GeneJuice (Novagen). After 24 h cells were harvested and cell viability assessed by trypan blue dye exclusion. Cells were seeded into 24-well plates and heat shocked (43° C. for 15 min (mild), 30 min (moderate), or 60 min (severe)) followed by recovery at 37° C. or stimulated after 18 h. Cells were washed, harvested in Cell Culture Lysis Reagent (CCLR, Promega) and firefly luciferase signal measured using the Luciferase Assay System (Promega) and the Wallac Victor 2 Multilabel Counter (Perkin-Elmer). Real-time PCR. RAW264.7 cells were seeded at 2.5×10^5/ml in sterile 24 well plates and adhered for 16-20 hrs prior to stimulation. […] Cells were assessed for viability, pooled per condition (n=4), pelleted by centrifugation and resuspended in CCLR.
# Cpn10 mRNA = Cpn10 mRNA real-time PCR in RAW264.7 cells; type: cell-based, mouse; conditions: maximal induction at 18 h, near baseline by 24 h
# RAW264.7 cells [1] = experiment: ELISA of endogenous Cpn10 in RAW264.7 culture supernatants and cell lysates; type: cell-based, mouse
# Text: Reagents. Recombinant human Cpn10 was produced to GMP specifications by BresaGen Limited (Adelaide, Aus) essentially as described previously (Johnson, B. 2005. J. Biol Chem 280:4037-4047). […] For FACS analysis, a cysteine residue was engineered onto the C-terminus of Cpn10 and labeled with AlexFluor647 (Invitrogen) according to manufacturer's instructions. […] TLR ligands and cytokines included: E. coli LPS (strain 055:B5, Sigma), E. coli ultra-pure LPS (0111:B4 Sigma), S. aureus LTA, B. subtilis LTA, S. aureus PGN, B. subtilis PGN, zymosan cell wall from S. cerevisae, poly(I:C), imiquimod R837, CpG ODN 1826 and ODN2216, GpC ODN1826 control, (all from Invivogen, San Diego, Calif.), recombinant mouse IFNγ, (Chemicon), IL-1β (PeproTech), and recombinant human TNF-α (Invivogen). Antibodies. Rabbit polyclonal antibodies were raised against Cpn10 and affinity purified at CBio. […] After 24 h cells were harvested and cell viability assessed by trypan blue dye exclusion. […] Cells were washed, harvested in Cell Culture Lysis Reagent (CCLR, Promega) and firefly luciferase signal measured using the Luciferase Assay System (Promega) and the Wallac Victor 2 Multilabel Counter (Perkin-Elmer). […] Cells were assessed for viability, pooled per condition (n=4), pelleted by centrifugation and resuspended in CCLR.
# RAW264.7 cells [2] = test system: RAW264.7 cells
# Procedure: (§2) For the data shown in FIG. 34, PolyI:C (supplied by Invivogen) was dissolved in sterile saline at 5 mg/ml stored frozen at −20° C. Vials were thawed and diluted into medium. For buffer controls, the same volume and sterile saline was added to cell culture wells. […] RAW264.7 cells were grown as adherent cultures in flasks and scraped (i.e. not trypisinised) prior to seeding into 96-well plates. HeLa cells were trypsinised in the standard way prior to seeding. Cells were seeded in duplicate in a 96-well plate (5×10^3 for RAW264.7 cells and 10^4 for HeLa cells in 50 μl medium per well). After 4 h, Cpn10 was added (in 50 μl diluted in medium) and after a further 30 mins polyI:C was added (in 50 μl diluted in medium). The cells were then incubated overnight in the 96-well plates and then RRV was added (MOI=1 for RAW264.7 cells, and MOI=10 for HeLa cells in 50 μl). After 3 days, the cells were fixed, stained with crystal violet, washed, dried and dye extracted with 100% methanol and read at A595 nm as described (Antalis et al, J Exp Med 1998, 187(11):1799). […] Titrations were established to determine the dose required for induction of anti-viral resistance for RAW264.7 cells and HeLa cells.
# Procedure for HeLa cells: as §2
substance,measurement,setting,value
"GroES: E. coli homologue of Cpn10, routinely used as a negative control",E ± ΔE (%) energy transfer efficiency,CD14; MM6 cells stimulated with LPS,7 ± 0.5%
same,E ± ΔE (%) energy transfer efficiency,CD14; Unstimulated MM6 cells,8 ± 1.0%
same,effect on polyI:C-induced IFNβ levels in culture supernatants,"TLR3; polyI:C stimulation, 10-200 μg/ml protein",did not modulate the production of IFN-β
same,E ± ΔE (%) energy transfer efficiency,Hsp90; MM6 cells stimulated with LPS,8 ± 2.0%
same,E ± ΔE (%) energy transfer efficiency,Hsp90; Unstimulated MM6 cells,7 ± 1.5%
same,E ± ΔE (%) energy transfer efficiency,Hsp70; MM6 cells stimulated with LPS,7 ± 1.5%
same,E ± ΔE (%) energy transfer efficiency,Hsp70; Unstimulated MM6 cells,6 ± 1.0%
same,E ± ΔE (%) energy transfer efficiency,GM1; MM6 cells stimulated with LPS,6 ± 1.0%
same,E ± ΔE (%) energy transfer efficiency,GM1; Unstimulated MM6 cells,7 ± 1.5%
same,E ± ΔE (%) energy transfer efficiency,TLR4; MM6 cells stimulated with LPS,8 ± 1.0%
same,E ± ΔE (%) energy transfer efficiency,TLR4; Unstimulated MM6 cells,7 ± 1.5%
same,E ± ΔE (%) energy transfer efficiency,CXCR4; MM6 cells stimulated with LPS,3 ± 1.0%
same,E ± ΔE (%) energy transfer efficiency,CXCR4; Unstimulated MM6 cells,4 ± 2.0%
"IL-1β: IL-1β (PeproTech), non-TLR agonist",up-regulation of the Cpn10 promoter,Cpn10 promoter,did not induce substantial up-regulation
TNF-α,up-regulation of the Cpn10 promoter,Cpn10 promoter,did not induce substantial up-regulation
lipoteichoic acid [LTA],induction of Cpn10 mRNA,Cpn10 mRNA,concentration-dependent induction of Cpn10 mRNA
same,induction of the Cpn10 promoter,"Cpn10 promoter; 24 hour stimulation, constant at 30 hours",2.7 fold
same,intracellular Cpn10 levels in cell lysates,RAW264.7 cells [1]; LTA treated vs control cells,little change in intracellular Cpn10 levels
same,increase in soluble (extracellular) Cpn10 in culture supernatants over unstimulated control cells,"RAW264.7 cells [1]; after 30 h, 100 μg/ml LTA",3 fold
polyinosinic-polysytidilic acid [polyI:C],toxicity,HeLa cells,No such toxicity was observed
same,IFNβ released into culture supernatants,"TLR3; polyI:C at 100 μg/ml, absence of Cpn10",292 pg/mL
same,concentrations showing clear signs of toxicity,RAW264.7 cells [2],5000 to 10000 ng/mL
